For 5 compounds, IC50 and Ki results are on record in ChEMBL document CHEMBL5329209, “Designing photoaffinity tool compounds for the investigation of the DENV NS2B-NS3 protease allosteric binding pocket” (RSC Med Chem, 2023).

Assay [1] addresses T1, Genome polyprotein (dengue virus type 2, UniProt P29990). Put plainly: Inhibition of DENV2 NS2B-NS3 protease using Boc-Gly-Arg-Arg-AMC as substrate by fluorometric analysis.
Assay [2] deals with T1, Genome polyprotein. The experiment in a line: Binding affinity to N terminal hexa histidine tagged DENV2 NS2B-NS3 protease assessed as apparent Ki by Dixon plot analysis. Conditions: read-out: Ki(app).

T1 sequence (P29990 1346-1475 limits assumed): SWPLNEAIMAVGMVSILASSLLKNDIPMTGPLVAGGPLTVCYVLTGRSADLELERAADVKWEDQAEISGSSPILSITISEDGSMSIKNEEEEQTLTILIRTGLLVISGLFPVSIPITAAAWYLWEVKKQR
T1 sequence (P29990 1476-2093 limits assumed): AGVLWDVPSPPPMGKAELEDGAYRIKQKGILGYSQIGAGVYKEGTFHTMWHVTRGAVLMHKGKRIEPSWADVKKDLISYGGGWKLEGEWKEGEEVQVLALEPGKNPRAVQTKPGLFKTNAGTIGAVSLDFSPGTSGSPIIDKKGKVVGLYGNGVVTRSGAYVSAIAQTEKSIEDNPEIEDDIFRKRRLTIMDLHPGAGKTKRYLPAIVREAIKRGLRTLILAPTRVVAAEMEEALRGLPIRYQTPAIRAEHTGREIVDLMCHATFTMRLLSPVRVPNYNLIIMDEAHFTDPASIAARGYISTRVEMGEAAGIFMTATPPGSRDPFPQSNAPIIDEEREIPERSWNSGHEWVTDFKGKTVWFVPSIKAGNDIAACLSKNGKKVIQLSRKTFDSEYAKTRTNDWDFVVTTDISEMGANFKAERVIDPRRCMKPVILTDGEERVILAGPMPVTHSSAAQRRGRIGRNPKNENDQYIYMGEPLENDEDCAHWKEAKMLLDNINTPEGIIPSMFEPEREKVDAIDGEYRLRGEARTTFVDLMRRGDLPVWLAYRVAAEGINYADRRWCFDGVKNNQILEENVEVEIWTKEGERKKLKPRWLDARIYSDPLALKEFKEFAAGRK

The term IC50 denotes the midpoint of a concentration-inhibition curve. High values mean weaker potency in that assay, low ones greater potency in that assay. On Genome polyprotein [1], `CC(C)(C)SSC[C@@H](NC(=O)c1ccc(C2(C(F)(F)F)N=N2)cc1)C(=O)Nc1nc2cc(O)c(O)cc2s1` showed an IC50 of 10.2 µM.
Same read-out and setting: then `O=C(N[C@H](CS)C(=O)Nc1nc2cc(O)c(O)cc2s1)c1ccc(C2(C(F)(F)F)N=N2)cc1`, with 13.4 µM.
Compound `CC1OCCC1SSC[C@@H](NC(=O)c1ccc(C2(C(F)(F)F)N=N2)cc1)C(=O)Nc1nc2cc(O)c(O)cc2s1` (stereo partly specified) registered an IC50 on Genome polyprotein [1] of 20 µM.
Still for that read-out and setting: the same measure for `O=C(CN(CC1CC2C=CC1C2)C(=O)c1ccc(C2(C(F)(F)F)N=N2)cc1)Nc1nc2cc(O)c(O)cc2s1` (stereo unspecified): 17 µM.
Take `O=C(Nc1nc2cc(O)c(O)cc2s1)c1ccc(C2(C(F)(F)F)N=N2)cc1`: the Ki on Genome polyprotein [2] amounted to 6.32 µM. Further, it took 9.97 µM to reach half-maximal inhibition at Genome polyprotein [1] (IC50).
